Here are results for ten molecules from publication PMC3551756, “HIV-1 Fusion Is Blocked through Binding of GB Virus C E2D Peptides to the HIV-1 gp41 Disulfide Loop” (PLoS ONE, 2013).

In test [1] the test system is HIV-1 NL4-3 / TZM-bl cells. As to the kind of experiment: HIV-1 virion-based (BlaM-Vpr) virus-cell fusion assay. The following applies: standard (pre-CD4 binding) and TAS (post-CD4 binding, 23°C 1 h then 37°C 2 hr); E2 peptides 20 µM, AMD-3100 10 µM, 2F5 0.5 µg/ml, b12 and B4 0.3 µg/ml; five independent experiments each in triplicate.
Method: HIV-1 virions containing the BlaM-Vpr chimera were produced as previously described [33]. Briefly, 293T cells were co-transfected with pNL4-3 proviral DNA, pCMV-BlaM-Vpr, and pAdVAntage vectors. After 2 days of cultivation, the virus-containing supernatant was centrifuged for 10 min at 300×g to remove cellular debris. The HIV-1 virion-containing supernatant was overlaid onto a 20% sucrose cushion and ultracentrifuged at 35000×g at 4°C for 90 min. The resulting pellet was resuspended in medium and aliquots were frozen at −80°C until usage.
The virion-based fusion assay was performed essentially as described elsewhere [41]. Briefly, 5×10^4 TZM-bl cells were infected with sucrose-purified HIV-1 NL4-3 virions containing BlaM-Vpr (5 ng p24-Gag per approach). Under temperature-arrested state (TAS) conditions, binding of the HI virions to target cells was allowed at low temperature via spinning inoculation, for which virions were added to cells and centrifuged at 2095×g, 4°C for 30 min. […] BlaM activity was quantified using a fluorescence plate reader. The extent of virus-cell fusion was determined from the ratio of blue (460 nm) and green (510 nm) emission upon exciting the cells at 405 nm.
To find out whether early or late steps of HIV-1 entry are affected by the E2 peptides, the E2 peptide activity was determined before and after gp120/CD4 engagement using the Vpr-β-lactamase (Vpr-BlaM) enzyme-based virus-cell fusion assay under standard (pre-CD4 binding) and temperature-arrested state (TAS; post-CD4 binding) conditions, respectively.
The HIV-inhibitory activity of known HIV-1 entry inhibitors or respective E2 peptides was determined using a virus-cell fusion assay under standard (respective inhibitors were added simultaneously to HIV NL4-3BlaM-Vpr inoculum: pre-CD4 binding) or under TAS (temperature-arrested state) conditions (respective inhibitors were added at low temperature of 23°C for 1 h after spin-inoculation [4°C] and removal of unbound HIV-1 particles: post-CD4 binding). […] Percentages were calculated in relation to mock-treated cells. […]
In another test the test system is CD4. As to the kind of experiment: CD4 surface expression, flow cytometry. The class given is cell-based, human. Particulars: PBMC and TZM-bl cells; E2 peptides 25 µM, PMA 40 ng/ml; 6 hr; FACS; RTCN vs mock; average of two independent experiments each in triplicate. As to the method: (§1) PHA/IL-2-stimulated PBMC or TZM-bl cells were incubated with E2 peptides (25 µM), phorbol 12-myristate 13-acetate (PMA; 40 ng/ml), SDF-1α (1 µg/ml) or RANTES (50 nM) for 6 hr. CD4, CXCR4 and CCR5 surface expression was analyzed by using standard FACS staining protocols. Cells were washed with PBS and incubated for 30 min at 4°C with PE-labeled antibodies (CD4 clone SK3, CXCR4 clone 12G5, and CCR5 clone 2D7, BD Biosciences, Germany). Subsequently, washed cells were resuspended in PBS and analyzed with a FACSCalibur™ flow cytometer (BD Biosciences, Germany).
(§2) The non-HIV-1-inhibitory peptide P28 derived from the C-terminal part of E2 (residue 271 to 290), served as a negative control.
(§3) CD4, CXCR4 and CCR5 expression on PBMC (A) and TZM-bl cells (B) after preincubation with E2 peptides were determined by flow cytometry analysis. […] Percentages illustrate the ratio-to-cell-negative (RTCN) values that were calculated from the percentage of positive cells and the fluorescence intensity of peptide-incubated cells compared to mock-incubated cells. Columns show average values ±SD of two independent experiments each performed in triplicate. *: p<0.05; **: p<0.01 (mock- vs. inhibitor-incubated cells).

For a further test, the system named is gp120/CCR5 interaction. In kind it is binding, HIV-1. Particulars: 293T cells expressing CCR5; sCD4 added; peptides 0.2 mM, E2_340-Fc 0.6 µM; 1 h 37°C; normalized to Hsp90.
In test [2] the test system is HIV-1 Env (NL4-3 gp160, X4env) on 293T cells. Description: HIV-1 gp160 (X4env) binding of FITC-labeled E2 peptides, flow cytometry. The following applies: FITC-labeled peptides 1 µM, sCD4 pretreated, 1 h 37°C, X4env- vs vector-transfected 293T cells; three independent experiments each in duplicate. How it is done: 293T cells were transiently transfected with an HIV-1 Env expression vector, coding for the CXCR4-tropic NL4-3 gp160 precursor (X4env) for surface expression of gp120-gp41 Env trimers or empty plasmid as control. After 2 days of cultivation, cells were incubated with 1 µg sCD4 and 1 µM FITC-conjugated E2 peptides for 1 h at 37°C respectively. Subsequently, cells were washed, resuspended in PBS, and analyzed by flow cytometry using a BD™ LSR II flow cytometer (Becton Dickinson Biosciences, Germany). Flow cytometer data were collected with BD FACSDiva™ and analyzed with FCS Express V3. In parallel, gp160 expression was determined by staining with HIV-1 gp120 mAbs (2G12 and 17b) and an anti-human IgG-FITC pAb (Dako, Germany).
Previously, we have shown that the target of the HIV-1-inhibitory E2 peptides is most likely located on the HIV-1 particle, rather than on the cell. The surface of the HIV-1 particle consists of a lipid bilayer with incorporated host cell proteins and a limited number of functional envelope (Env) trimers (on average 14±7). Therefore, we tested whether the HIV-1-inhibitory E2 peptides interact with trimeric HIV-1 Env proteins expressed on the surface of transfected cells. For this purpose, 293T cells were transiently transfected with an HIV-1 Env expression vector, coding for the gp160 precursor of the CXCR4-tropic NL4-3 envelope (X4env). Binding of FITC-labeled E2 peptides was monitored by flow cytometry.
Figure 4 Recombinant E2_340-Fc protein and E2-derived peptides bind HIV-1 gp41. (A) 293T cells expressing NL4-3 envelope (X4env) or empty plasmid as control were incubated with sCD4 and FITC-conjugated E2 peptides, respectively. Peptide binding was analyzed by flow cytometry. Percentages illustrate the increase of cell binding to X4env-transfected cells. The increase is normalized to the background binding of E2 peptides to mock-transfected cells by calculating the RTCN value. […] (C) E2 peptides with increasing amounts were added to recombinant E2_340-Fc protein (at constant concentration) and then transferred to immobilized recombinant gp41MN.

Another test concerns CXCR4. As to the kind of experiment: CXCR4 surface expression, flow cytometry. In kind it is cell-based, human. The following applies: PBMC and TZM-bl cells; E2 peptides 25 µM, SDF-1α 1 µg/ml; 6 hr; FACS; RTCN vs mock; average of two independent experiments each in triplicate. As to the method: as §1, §2, §3
The next test relates to HIV-1. The following applies: ref [33]; cited from earlier work.
A further test relates to CCR5. Description: CCR5 surface expression, flow cytometry. The class given is cell-based, human. Particulars: PBMC and TZM-bl cells; E2 peptides 25 µM, RANTES 50 nM; 6 hr; FACS; RTCN vs mock; average of two independent experiments each in triplicate. How it is done:
as §1, §2, §3

Test [3] concerns the target E2_340-Fc / HIV-1 gp41MN interaction (Human immunodeficiency virus type 1 group M subtype B, UniProt P05877). In kind it is binding. The following applies: ELISA, immobilized gp41MN, E2_340-Fc constant (5 µg/ml), increasing peptide; three independent experiments each in duplicate.
Method: Flat-bottom, 96-well Microtest ELISA plates (Sarstedt, Germany) were coated overnight at 4°C with recombinant HIV-1 gp120 (0.5 µg/ml), gp41 (0.22 µg/ml) proteins, or with streptavidin (4 µg/ml) in coating buffer (0.1 M NaHCO3, 0.1 M Na2CO3, pH 9.87). Nonspecific binding was blocked (blocking buffer: 1% BSA, 0.1% Tween-20 in phosphate buffer, pH 7.2) for 1 h at room temperature, followed by washing steps (wash buffer: 0.1% Tween in phosphate buffer, pH 7.2). […] All plates were then incubated with recombinant E2_340-Fc or Fc protein in serial dilutions in sample buffer (phosphate buffer, pH 7.2) for 3 hr at room temperature. To perform the competitive ELISAs, the recombinant E2_340-Fc protein was adjusted at 5 µg/ml and the monoclonal gp41 antibodies (246-D, F240, T32, D50, 2F5, 4E10, Chessie 8 [all: NIH AIDS Research and Reference Reagent Program], and 5F3 [Polymun, Austria]) at 100 µM. After washing procedure, the plates were incubated for 1 h with polyclonal rabbit anti-human IgG peroxidase antibody (Dako, Germany) 1∶6000 in sample buffer and washed. Plates were developed with TMB peroxidase substrate solution (KPL, USA), or with OPD/H2O2 solution in the dark. Absorbances (ODs) were read at 450 or 492 nm, respectively, using a multi-channel photometer (ELISA-Reader AxSYM, Abbott Laboratory, USA).
Competitive binding of E2 and gp120 peptides (N35, N35s) with recombinant E2_340-Fc protein to immobilized recombinant gp41MN. Simultaneously to E2_340-Fc incubation peptides of E2 or gp120 were added with increasing amounts.
Test [4] deals with recombinant HIV-1 gp41MN (truncated gp41 ectodomain) (HIV-1 (strain MN)). As to the kind of experiment: ELISA; competitive: gp41MN immobilised; E2_(340)-Fc at constant 5 µg/ml with increasing amounts of peptide; bound E2_(340)-Fc detected with anti-human IgG peroxidase antibody.

Method for gp120/CCR5 interaction: Briefly, 293T cells were transiently transfected with either pCD4 or pCCR5 expression plasmids. Verification of expression was performed 2 days after transfection via flow cytometry. After 2 days of cultivation, the cells were resuspended in binding buffer (50 mM HEPES, 5 mM MgCl2, 1 mM CaCl2, 5% BSA, 0.1 mM NaN3, pH 7.5). […] After incubation for 1 h at 37°C, cells were washed with cold PBS and lysed in Triton X-100 and Tween-20 containing buffer. Lysates were separated by a 5% SDS-PAGE and verified with monoclonal gp120 antibody F425 B4a1 (NIH AIDS Research and Reference Reagent Program) or with sheep α-HIV-1-gp120 (Aalto Bio Reagents Ltd.) in Western Blot analyses. HIV-1 gp120 (5 ng) was used as a standard.
In a related approach, the effect of E2 peptides or intact E2 protein on the interaction between gp120 and the coreceptors CCR5 and CXCR4 expressed on cells was tested by immunoblotting. To ensure efficient binding of gp120 to the coreceptors, soluble CD4 (sCD4) was added simultaneously.
Soluble HIV-1 gp120 was added to the CD4-, CCR5-, or CXCR4-expressing cells and binding was investigated by separating the cell lysates on SDS-PAGE and visualized by performing Western Blot analyses.

Consider `c1cc(CN2CCCNCCNCCCNCC2)ccc1CN1CCCNCCNCCCNCC1` [AMD-3100, reference compound], for which the “inhibition of virus-cell fusion, standard versus TAS conditions” value in test [1] is on record as “act after CD4 engagement”.

Regarding `CCCCCCCCCCCCCC(=O)O[C@@H]1[C@@H](C)[C@@]2(O)[C@@H](C=C(CO)C[C@]3(O)C(=O)C(C)=C[C@@H]23)[C@@H]2C(C)(C)[C@]12OC(C)=O` [PMA, phorbol 12-myristate 13-acetate, reference compound], in the test on CD4, the CD4 surface presentation result was “down-regulation of CD4”.

For the molecule `Cc1ccc(-c2ccc3c(c2)C=C(C(=O)Nc2ccc(C[N+](C)(C)C4CCOCC4)cc2)CCC3)cc1.[Cl-]` [TAK-779], in the test with gp120/CCR5 interaction, the “interference with gp120 binding to CCR5” value is “clear reduction in the gp120/CCR5”. Ac-TEVSEALGGAGLTGGFYEPL [P28]: in test [2], the “binding to HIV-1 Env-expressing cells” value is given as “the increase of binding was not observed”. The CXCR4 surface presentation entry in the test on CXCR4 is “no relevant effect on HIV-1 receptor presentation”. Besides, in the test with HIV-1, the “HIV-inhibitory activity (earlier work)” value is reported as “non-HIV-1-inhibitory”. Besides, in the test on CCR5, the CCR5 surface presentation result is on record as “no relevant effect on HIV-1 receptor presentation”. For the same molecule, the “competition with E2_340-Fc for gp41 binding” value in test [3] is reported as “no effect”. In addition, in the test with CD4, the CD4 surface presentation result is recorded as “no relevant effect on HIV-1 receptor presentation”.

Consider “GBV-C E2 peptide P6-2 (amino acids 45 to 64)”, for which, in test [4], the IC50 was 7 µM.

Regarding Maraviroc, the “interference with gp120 binding to CCR5” value in the test with gp120/CCR5 interaction was “clear reduction in the gp120/CCR5”.

In the case of “N35, HIV-1 gp120 N-terminus peptide (gp120 residue 31 to 65) (from UniProt P04578 31-65)”, the IC50 in [4] was 0.7 µM. Still for that read-out and setting: the figure for “N35s, C54S variant of the HIV-1 gp120 N-terminus peptide N35 (from UniProt P04578 31-65)” is 4.6 µM. Turning to SDF-1α [reference compound], the CXCR4 surface presentation entry in the test on CXCR4 was “down-regulation of the respective coreceptors”.

B1: RANTES: CCR5-ligand (protein, UniProt P13501 24-91, looked up)
C-C motif chemokine 5: SPYSSDTTPCCFAYIARPLPRAHIKEYFYTSGKCSNPAVVFVTRKNRQVCANPEKKWVREYINSLEMS
In the case of B1, the CCR5 surface presentation entry in the test on CCR5 is “down-regulation of the respective coreceptors”.
